Values joined by “and” are separate entries in the source; they are usually repeats but may differ in a detail not shown here. Identical values can stand only once. Inconclusive results and toxic doses are left out. Where a SMILES comes first, the peptide text is derived from it. The star is where a group is joined. Cbz = O=C(OCc1ccccc1)*
Tested on: B6C3F1 mice, B16 melanoma ip, median survival T/C
Assay: NCI In Vivo Anticancer Drug Screen. Data for tumor model B16 Melanoma (intraperitoneal) in B6C3F1 mice
Settings: endpoint: median survival time, schedule: Q01DX009 (ip), higher = longer survival
Procedure, shortened: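 Antitumor effect was judged in mice with transplanted tumors by dividing the treated group's survival measure by that of vehicle controls.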

[1] = dose: 6.25 mg/kg/injection, vehicle: other
[2] = dose: 12.5 mg/kg/injection, vehicle: other
[3] = dose: 25.0 mg/kg/injection, vehicle: other
[4] = dose: 6.25 mg/kg/injection, vehicle: Klucel (hydroxypropylcellulose) (HPC)
[5] = dose: 12.5 mg/kg/injection, vehicle: Klucel (hydroxypropylcellulose) (HPC)
[6] = dose: 50.0 mg/kg/injection, vehicle: Klucel (hydroxypropylcellulose) (HPC)
[7] = dose: 6.25 mg/kg/injection, vehicle: water
[8] = dose: 12.5 mg/kg/injection, vehicle: water
[9] = dose: 25.0 mg/kg/injection, vehicle: water
[10] = dose: 50.0 mg/kg/injection, vehicle: saline with Tween-80
[11] = dose: 100.0 mg/kg/injection, vehicle: saline with Tween-80
[12] = dose: 200.0 mg/kg/injection, vehicle: saline with Tween-80
[13] = dose: 25.0 mg/kg/injection, vehicle: saline with Tween-80
[14] = dose: 100.0 mg/kg/injection, vehicle: Klucel (hydroxypropylcellulose) (HPC)
[15] = dose: 200.0 mg/kg/injection, vehicle: Klucel (hydroxypropylcellulose) (HPC)
[16] = dose: 400.0 mg/kg/injection, vehicle: Klucel (hydroxypropylcellulose) (HPC)
[17] = dose: 12.5 mg/kg/injection, vehicle: saline with Tween-80
[18] = dose: 25.0 mg/kg/injection, vehicle: Klucel (hydroxypropylcellulose) (HPC)
[19] = dose: 3.13 mg/kg/injection, vehicle: saline
[20] = dose: 50.0 mg/kg/injection, vehicle: saline
[21] = dose: 100.0 mg/kg/injection, vehicle: saline
[22] = dose: 200.0 mg/kg/injection, vehicle: saline
[23] = dose: 6.25 mg/kg/injection, vehicle: saline
[24] = dose: 12.5 mg/kg/injection, vehicle: saline
[25] = dose: 25.0 mg/kg/injection, vehicle: saline

## Cc1ccc(N=NN(C)C)c2cccnc12
dose: 3.13 mg/kg/injection, vehicle: other
  T/C: 106 % of control
[1]
  T/C: 95 % of control
[2]
  T/C: 108 % of control
[3]
  T/C: 114 % of control
dose: 50.0 mg/kg/injection, vehicle: other
  T/C: 115 % of control

## CCCn1cc2c3c(cccc31)C1C=C(C)CN(C)C1C2 (stereo not drawn)
[1]
  T/C: 118 % of control
[2]
  T/C: 306 % of control
[3]
  T/C: 91 % of control

## O=S1(=O)CS(=O)(=O)OCCO1
[4]
  T/C: 111 % of control
[5]
  T/C: 153 % of control and 161 % of control
[6]
  T/C: 117 % of control

## O=C1C2C3C=CC(C2C(=O)N1CO)C1C2C(=O)N(CO)C(=O)C2C31 (stereo not drawn)
[7]
  T/C: 102 % of control
[8]
  T/C: 109 % of control
[9]
  T/C: 113 % of control

## c1ccc2[nH]ncc2c1
[10]
  T/C: 107 % of control
[11]
  T/C: 104 % of control
[12]
  T/C: 102 % of control

## CC(C)(C)OC(=O)N1CCCC1C(=O)N1CCCC1C(=O)Oc1ccccc1 (stereo not drawn)
[13]
  T/C: 103 % of control
[10]
  T/C: 93 % of control
[11]
  T/C: 100 % of control
dose: 100.0 mg/kg/injection, vehicle: suspension in saline
  T/C: 118 % of control
[12]
  T/C: 94 % of control
dose: 200.0 mg/kg/injection, vehicle: suspension in saline
  T/C: 115 % of control
dose: 400.0 mg/kg/injection, vehicle: suspension in saline
  T/C: 104 % of control

## CCC(C)C(NC(=O)OCc1ccccc1)C(=O)NC(C(=O)O)C(C)C (stereo not drawn) (Cbz-Ile-Val-OH; configuration not given here)
[14]
  T/C: 91 % of control
[15]
  T/C: 94 % of control
[16]
  T/C: 94 % of control

## CC(NC(=O)C(CO)NC(=O)CN)C(=O)O (stereo not drawn)
[14]
  T/C: 98 % of control
[15]
  T/C: 98 % of control
[16]
  T/C: 98 % of control

## Cc1ccc(C(=O)NC2C(=O)NC(C(C)C)C(=O)N3CCCC3C(=O)N(C)CC(=O)N(C)C(C(C)C)C(=O)OC2C)c2c1Oc1c(c(C(=O)NC3C(=O)NC(C(C)C)C(=O)N4CCCC4C(=O)N(C)CC(=O)N(C)C(C(C)C)C(=O)OC3C)c3nc(-c4ccccc4)c(=O)oc3c1C)N2 (stereo not drawn)
dose: 0.5 mg/kg/injection, vehicle: water
  T/C: 157 % of control

## S=C(Nc1ccc(Cl)c(Cl)c1)N1c2ccccc2-n2cccc2C1c1cccnc1 (stereo not drawn)
[5]
  T/C: 90 % of control and 98 % of control and 102 % of control
[17]
  T/C: 99 % of control
[18]
  T/C: 91 % of control and 94 % of control and 98 % of control
[13]
  T/C: 102 % of control
[6]
  T/C: 90 % of control and 104 % of control and 107 % of control
[10]
  T/C: 99 % of control
[14]
  T/C: 88 % of control and 91 % of control and 97 % of control
[11]
  T/C: 107 % of control
[15]
  T/C: 114 % of control and 90 % of control (2×)
[12]
  T/C: 102 % of control
[16]
  T/C: 91 % of control

## [Na+]
[9]
  T/C: 111 % of control
dose: 50.0 mg/kg/injection, vehicle: water
  T/C: 91 % of control
dose: 100.0 mg/kg/injection, vehicle: water
  T/C: 92 % of control
dose: 200.0 mg/kg/injection, vehicle: water
  T/C: 106 % of control
dose: 400.0 mg/kg/injection, vehicle: water
  T/C: 86 % of control

## [Cl][Pt+2][Cl].[NH-]CC1(C[NH-])CCC1
dose: 0.19 mg/kg/injection, vehicle: suspension in saline
  T/C: 107 % of control
dose: 0.39 mg/kg/injection, vehicle: suspension in saline
  T/C: 114 % of control
dose: 0.78 mg/kg/injection, vehicle: suspension in saline
  T/C: 123 % of control
dose: 1.56 mg/kg/injection, vehicle: suspension in saline
  T/C: 151 % of control
dose: 3.12 mg/kg/injection, vehicle: suspension in saline
  T/C: 167 % of control

## C=C1C(=O)OC2CC(C)C3C4OC4C(O)C3(C)C(O)C12 (stereo not drawn)
dose: 0.4 mg/kg/injection, vehicle: saline
  T/C: 104 % of control
dose: 0.8 mg/kg/injection, vehicle: saline
  T/C: 110 % of control
dose: 1.56 mg/kg/injection, vehicle: saline
  T/C: 108 % of control
[19]
  T/C: 124 % of control

## CCC(C)C(NC(=O)OCC1c2ccccc2-c2ccccc21)C(=O)O (stereo not drawn)
[14]
  T/C: 101 % of control and 102 % of control
[15]
  T/C: 98 % of control and 100 % of control

## CSCCC(NC(=O)CNC(=O)CNC(=O)OCc1ccccc1)C(=O)O (stereo not drawn) (HELM PEPTIDE1{[O=C(OCc1ccccc1)[*:2]].G.G.[CSCCC(N[*:1])C(=O)O]}$$$$V2.0)
[14]
  T/C: 100 % of control
[15]
  T/C: 103 % of control
[16]
  T/C: 108 % of control

## CC(C)(C)OC(=O)NC(CCCNC(=O)OCc1ccccc1)C(=O)O (stereo not drawn)
[14]
  T/C: 110 % of control
[15]
  T/C: 104 % of control
[16]
  T/C: 98 % of control

## COc1cc(NCc2ccc3nc(N)nc(N)c3c2C)cc(OC)c1OC
dose: 2.5 mg/kg/injection, vehicle: sodium bicarbonate
  T/C: 110 % of control
dose: 5.0 mg/kg/injection, vehicle: sodium bicarbonate
  T/C: 118 % of control
[7]
  T/C: 108 % of control
dose: 10.0 mg/kg/injection, vehicle: sodium bicarbonate
  T/C: 123 % of control
[8]
  T/C: 114 % of control
[9]
  T/C: 121 % of control

## NC(N)=O
[20]
  T/C: 99 % of control
[21]
  T/C: 100 % of control
[22]
  T/C: 106 % of control
dose: 400.0 mg/kg/injection, vehicle: saline
  T/C: 95 % of control

## Nc1ccc(Cn2ccc3c4c(N)nc(N)nc4ccc32)cc1
dose: 1.25 mg/kg/injection, vehicle: saline with Tween-80
  T/C: 95 % of control and 100 % of control
dose: 2.5 mg/kg/injection, vehicle: saline with Tween-80
  T/C: 110 % of control and 99 % of control
dose: 5.0 mg/kg/injection, vehicle: saline with Tween-80
  T/C: 99 % of control and 105 % of control
dose: 10.0 mg/kg/injection, vehicle: saline with Tween-80
  T/C: 111 % of control and 119 % of control

## c1ccc(OCC2CO2)c(OCC2CO2)c1 (stereo not drawn)
[17]
  T/C: 108 % of control
[13]
  T/C: 109 % of control and 114 % of control and 118 % of control
[11]
  T/C: 150 % of control and 171 % of control
[12]
  T/C: 219 % of control

## O=c1n(CC2CO2)c(=O)n(CC2CO2)n1CC1CO1 (stereo not drawn)
dose: 3.0 mg/kg/injection, vehicle: saline
  T/C: 172 % of control
dose: 6.0 mg/kg/injection, vehicle: saline
  T/C: 212 % of control
[23]
  T/C: 183 % of control
dose: 12.0 mg/kg/injection, vehicle: saline
  T/C: 300 % of control
[24]
  T/C: 198 % of control

## O=Cc1c(CO)cc(O)c(O)c1O
dose: 3.13 mg/kg/injection, vehicle: Klucel (hydroxypropylcellulose) (HPC)
  T/C: 115 % of control
[4]
  T/C: 104 % of control
[5]
  T/C: 89 % of control
[18]
  T/C: 88 % of control

## CN1C2CCC1C(Br)C(=O)C2 (stereo not drawn)
[25]
  T/C: 105 % of control
[20]
  T/C: 95 % of control
[21]
  T/C: 93 % of control
[22]
  T/C: 93 % of control

## O=C(Nc1cccnc1)c1ccc([N+](=O)[O-])s1
dose: 1.13 mg/kg/injection, vehicle: saline
  T/C: 96 % of control
dose: 1.88 mg/kg/injection, vehicle: saline
  T/C: 92 % of control
[19]
  T/C: 97 % of control
dose: 5.21 mg/kg/injection, vehicle: saline
  T/C: 94 % of control
[23]
  T/C: 103 % of control
dose: 8.69 mg/kg/injection, vehicle: saline
  T/C: 89 % of control
[24]
  T/C: 97 % of control
[25]
  T/C: 87 % of control and 99 % of control
